# The NIST ThermoML archive (doi:10.1016/j.fluid.2011.04.024)
# ± gives the expanded uncertainty stated by the source.
# Settings: Liquid, Closed cell (Static) method
compound,measurement,setting,value
C=CCCCCCCCCCC [1-dodecene],vapor or sublimation pressure,430.38 K,21.7 ± 0.4 kPa
same,vapor or sublimation pressure,443.18 K,33.6 ± 0.4 kPa
same,vapor or sublimation pressure,453.99 K,44 ± 0.4 kPa
same,vapor or sublimation pressure,459.86 K,52.6 ± 0.4 kPa
same,vapor or sublimation pressure,464.81 K,61.6 ± 0.4 kPa
same,vapor or sublimation pressure,470.91 K,70.7 ± 0.4 kPa
same,vapor or sublimation pressure,476.45 K,80.8 ± 0.4 kPa
same,vapor or sublimation pressure,480.78 K,90.2 ± 0.5 kPa
same,vapor or sublimation pressure,484.11 K,100.7 ± 0.5 kPa
c1ccc2sccc2c1 [benzo[b]thiophene],vapor or sublimation pressure,434.26 K,21.3 ± 0.4 kPa
same,vapor or sublimation pressure,446.75 K,30.3 ± 0.4 kPa
same,vapor or sublimation pressure,457.64 K,41.1 ± 0.4 kPa
same,vapor or sublimation pressure,465.61 K,50.8 ± 0.4 kPa
same,vapor or sublimation pressure,472.44 K,60.5 ± 0.4 kPa
same,vapor or sublimation pressure,479.15 K,71.5 ± 0.4 kPa
same,vapor or sublimation pressure,484.01 K,80.5 ± 0.4 kPa
same,vapor or sublimation pressure,489.09 K,90.9 ± 0.4 kPa
same,vapor or sublimation pressure,493.8 K,101.5 ± 0.4 kPa
CCCCCCCCCCCC [dodecane],vapor or sublimation pressure,432.23 K,20.9 ± 0.4 kPa
same,vapor or sublimation pressure,444.86 K,31 ± 0.4 kPa
same,vapor or sublimation pressure,455.87 K,42.7 ± 0.4 kPa
same,vapor or sublimation pressure,462.05 K,50.8 ± 0.4 kPa
same,vapor or sublimation pressure,469.67 K,62.3 ± 0.4 kPa
same,vapor or sublimation pressure,474.19 K,70.2 ± 0.4 kPa
same,vapor or sublimation pressure,479.82 K,81 ± 0.4 kPa
same,vapor or sublimation pressure,484.34 K,90.8 ± 0.4 kPa
same,vapor or sublimation pressure,488.5 K,100.6 ± 0.4 kPa
CCCCCCCCO [octan-1-ol],vapor or sublimation pressure,417.83 K,20.5 ± 0.4 kPa
same,vapor or sublimation pressure,428.6 K,30.4 ± 0.4 kPa
same,vapor or sublimation pressure,437.35 K,41.5 ± 0.4 kPa
same,vapor or sublimation pressure,443.9 K,50.5 ± 0.4 kPa
same,vapor or sublimation pressure,449.55 K,60.7 ± 0.4 kPa
same,vapor or sublimation pressure,454.52 K,71 ± 0.4 kPa
same,vapor or sublimation pressure,459.23 K,81 ± 0.4 kPa
same,vapor or sublimation pressure,463.21 K,91.1 ± 0.5 kPa
same,vapor or sublimation pressure,466.61 K,100.3 ± 0.5 kPa
